Experimental data: patent EP3375430A1, “FRAGRANCE COMPOSITIONS” (Takasago International Corporation, priority 2017, dated 2018)

Tests used:
[1] = Headspace concentration of fragrance ingredients over blotter (thermal desorption GC-MS); assay type: physicochemical; conditions: fragrance TAK; T0 + 8h; Figure 4
Experimental: The headspace concentration of individual ingredients of fragrance TAK, as formulated in either a conventional EdT (EdT1) or a fragrance composition of the invention (C1), was assessed by the method described below.
A 10 cm length was cut from a standard perfumers' blotter. A sample of 100µL volume was applied to the upper surface of the blotter with a syringe. The blotter was placed on a hot plate thermostatted at 32°C and left to equilibrate for 5 minutes. Two desorption tubes (6cm length 4mm internal diameter) each containing 2 cm length of Tenax TA adsorbent were fitted to the glass part of a headspace apparatus shown in figure 9. The glass part was fitted over the blotter, a metering pump was connected to one of the desorption tubes and air was drawn through the apparatus flushing the headspace over the blotter at a rate of 17mL/min. Sampling continued for about 16.5 minutes until 280mL of air had been extracted. Then the outlet desorption tube was analysed by gas chromatography as described below. The glass part was removed from the blotter which was left on the hotplate until the next sampling time when two fresh desorption tubes were fitted and the extraction procedure repeated for a further 280mL of extracted headspace.
• Initial Temp: 50°C • Initial Time: 5 min • Rate: 3°C /min • Final Temp: 250°C • Final Time: 20 min • Run Time: 91.67 min
• Column: HP-5MS 30m * 0.25mm * 0.25µm • Gas: Helium • Constant pressure 12.675 psi
• Initial Temp: -30°C • Equilibration Time: 0.05 min • Initial Time: 0.00 min • Rate 12°C / min • End Temp: 260°C • Hold Time: 10 min
Temperature program • Initial Temp: 35°C • Delay Time: 0.30 min • Initial Time: 0.00 min • Rate: 30°C / min • End Temp: 250°C • Hold Time: 5.00 min
TDU Settings • Transfer Temp: 250°C • Transfer Temp Mode: Fixed • Desorption Mode: splitless • Sample mode: Retain tube - standby cooling • Standby Temp: 50°C
Detector MS • MS 5973 • Mass range: 35 to 350 • Threshold: 150 • Mass Quad: 150°C • Mass Source: 230°C
Following the procedure of example 2, the headspace concentration of representative ingredients of fragrance COM1 was determined. COM1 was dosed at 5 and 20 % either in control EdT3 and EdT4 or in compositions of the invention C7 and C8, as shown in table 10.
The headspace concentration of individual ingredients of fragrance TAK (see Table 1), as formulated in either a conventional EdT (EdT1) or fragrance compositions of the invention (C14, C15), was assessed by the method described in example 2.

[2] = Amount of fragrance ingredients retained on paper blotter after evaporation (ethanol extraction, GC-MS); assay type: physicochemical
Procedure, shortened: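 100 µL of fragrance formulation applied to paper blotters kept at 32°C open to air; at each time three blotters extracted 1 h in ethanol with methyl decanoate internal standard and analysed by GC-MS (HP-5MS, 50–280°C). Amounts averaged over triplicates and expressed as percent of time-zero level.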

## CC/C=C\CCOC(=O)c1ccccc1O [Cis 3-hexenyl salicylate, Cis-3-hexenyl salicylate]
[1]
  headspace concentration in composition C1 compared to control EdT1: lower
[2]; Table 3, fragrance TAK in C1, 15 min, 32°C
  amount of fragrance ingredient retained on blotter (percentage of the initial amount): 76%
[2]; Table 3, fragrance TAK in C1, 60 min, 32°C
  amount of fragrance ingredient retained on blotter (percentage of the initial amount): 77%
[2]; Table 3, fragrance TAK in C1, 120 min, 32°C
  amount of fragrance ingredient retained on blotter (percentage of the initial amount): 75%
[2]; Table 3, fragrance TAK in C1, 240 min, 32°C
  amount of fragrance ingredient retained on blotter (percentage of the initial amount): 73%
[2]; Table 3, fragrance TAK in C1, 480 min, 32°C
  amount of fragrance ingredient retained on blotter (percentage of the initial amount): 60%
[2]; Table 3, fragrance TAK in EdT1, 15 min, 32°C
  amount of fragrance ingredient retained on blotter (percentage of the initial amount): 96%
[2]; Table 3, fragrance TAK in EdT1, 60 min, 32°C
  amount of fragrance ingredient retained on blotter (percentage of the initial amount): 87%
[2]; Table 3, fragrance TAK in EdT1, 120 min, 32°C
  amount of fragrance ingredient retained on blotter (percentage of the initial amount): 85%
[2]; Table 3, fragrance TAK in EdT1, 240 min, 32°C
  amount of fragrance ingredient retained on blotter (percentage of the initial amount): 80%
[2]; Table 3, fragrance TAK in EdT1, 480 min, 32°C
  amount of fragrance ingredient retained on blotter (percentage of the initial amount): 32%
[2]; Table 3, fragrance TAK in EdT1 or C1, T0, set at 100% (normalisation)
  amount of fragrance ingredient retained on blotter (percentage of the initial amount): 100%
[2]; Table 4, fragrance TAK in C2, 15 min, 32°C
  amount of fragrance ingredient retained on blotter (percentage of the initial amount): 99%
[2]; Table 4, fragrance TAK in C2, 480 min, 32°C
  amount of fragrance ingredient retained on blotter (percentage of the initial amount): 63%
[2]; Table 4, fragrance TAK in EdT1, 15 min, 32°C
  amount of fragrance ingredient retained on blotter (percentage of the initial amount): 84%
[2]; Table 4, fragrance TAK in EdT1, 480 min, 32°C
  amount of fragrance ingredient retained on blotter (percentage of the initial amount): 32%
[2]; Table 4, fragrance TAK in EdT1 or C2, T0, set at 100% (normalisation)
  amount of fragrance ingredient retained on blotter (percentage of the initial amount): 100%
[2]; Table 5, fragrance TAK in C3, 15 min, 32°C
  amount of fragrance ingredient retained on blotter (percentage of the initial amount): 78%
[2]; Table 5, fragrance TAK in C3, 60 min, 32°C
  amount of fragrance ingredient retained on blotter (percentage of the initial amount): 84%
[2]; Table 5, fragrance TAK in C3, 120 min, 32°C
  amount of fragrance ingredient retained on blotter (percentage of the initial amount): 83%
[2]; Table 5, fragrance TAK in C3, 240 min, 32°C
  amount of fragrance ingredient retained on blotter (percentage of the initial amount): 82%
[2]; Table 5, fragrance TAK in C3, 480 min, 32°C
  amount of fragrance ingredient retained on blotter (percentage of the initial amount): 61%
[2]; Table 5, fragrance TAK in C3, 1440 min, 32°C
  amount of fragrance ingredient retained on blotter (percentage of the initial amount): 50%
[2]; Table 5, fragrance TAK in EdT1, 15 min, 32°C
  amount of fragrance ingredient retained on blotter (percentage of the initial amount): 96%
[2]; Table 5, fragrance TAK in EdT1, 60 min, 32°C
  amount of fragrance ingredient retained on blotter (percentage of the initial amount): 87%
[2]; Table 5, fragrance TAK in EdT1, 120 min, 32°C
  amount of fragrance ingredient retained on blotter (percentage of the initial amount): 85%
[2]; Table 5, fragrance TAK in EdT1, 240 min, 32°C
  amount of fragrance ingredient retained on blotter (percentage of the initial amount): 80%
[2]; Table 5, fragrance TAK in EdT1, 480 min, 32°C
  amount of fragrance ingredient retained on blotter (percentage of the initial amount): 32%
[2]; Table 5, fragrance TAK in EdT1, 1440 min, 32°C
  amount of fragrance ingredient retained on blotter (percentage of the initial amount): 14%
[2]; Table 5, fragrance TAK in EdT1 or C3, T0, set at 100% (normalisation)
  amount of fragrance ingredient retained on blotter (percentage of the initial amount): 100%
[2]; Table 6, fragrance TAK in C4, 15 min, 32°C
  amount of fragrance ingredient retained on blotter (percentage of the initial amount): 92%
[2]; Table 6, fragrance TAK in C4, 60 min, 32°C
  amount of fragrance ingredient retained on blotter (percentage of the initial amount): 84%
[2]; Table 6, fragrance TAK in C4, 120 min, 32°C
  amount of fragrance ingredient retained on blotter (percentage of the initial amount): 93%
[2]; Table 6, fragrance TAK in C4, 240 min, 32°C
  amount of fragrance ingredient retained on blotter (percentage of the initial amount): 94%
[2]; Table 6, fragrance TAK in C4, 480 min, 32°C
  amount of fragrance ingredient retained on blotter (percentage of the initial amount): 65%
[2]; Table 6, fragrance TAK in EdT1, 15 min, 32°C
  amount of fragrance ingredient retained on blotter (percentage of the initial amount): 96%
[2]; Table 6, fragrance TAK in EdT1, 60 min, 32°C
  amount of fragrance ingredient retained on blotter (percentage of the initial amount): 87%
[2]; Table 6, fragrance TAK in EdT1, 120 min, 32°C
  amount of fragrance ingredient retained on blotter (percentage of the initial amount): 85%
[2]; Table 6, fragrance TAK in EdT1, 240 min, 32°C
  amount of fragrance ingredient retained on blotter (percentage of the initial amount): 80%
[2]; Table 6, fragrance TAK in EdT1, 480 min, 32°C
  amount of fragrance ingredient retained on blotter (percentage of the initial amount): 32%
[2]; Table 6, fragrance TAK in EdT1 or C4, T0, set at 100% (normalisation)
  amount of fragrance ingredient retained on blotter (percentage of the initial amount): 100%
